Reference: US20200371122A1, “BIOMARKER FOR SENESCENT CELLS” (Buck Institute for Research on Aging, priority 2017, published 2020)

Legend:
[1] = test system: bleomycin-induced fibrosis; details: administration; Kida 2016, Genovese 2005; cited from earlier work
[2] = test system: naïve nonsenescent IMR-90 fibroblasts; assay: Conditioned media from senescent cells applied to naive IMR-90 fibroblasts (Col1a2, ACTA2 qPCR); format: cell-based, human
Method: RNA was extracted from cells or tissues using commercially available kits (Isolate II—Bioline for cells; Direct-zol—Zymo for tissues) according to the manufacturer's instructions. cDNA synthesis was performed using a High Capacity cDNA Reverse Transcription Kit (Thermo Fisher) according to the manufacturer's instructions. Quantitative PCR was performed on a LightCycler 480 II (Roche) using primers and probes designed for the Universal Probe Library. Primers and probes used for human transcripts were ACTB: 5′-CCAACCGCGAGAAGATGA (SEQ ID NO:1), 5′-TCCATCACGATGCCAGTG (SEQ ID NO:2), Probe #64; TUBA: 5′-cttcgtctccgccatcag (SEQ ID NO:3), 5′-ttgccaatctggacacca (SEQ ID NO:4), Probe #58; ALOX5: 5′-[…] (SEQ ID NO:5), 5′-[…] (SEQ ID NO:6), Probe #64; ALOX5AP: 5′-ggtctgcggggctacttt (SEQ ID NO:7), 5′-[…] (SEQ ID NO:8), Probe #18; ALOX12: 5′-[…] (SEQ ID NO:9), 5′-agccaggtcgtcaggag (SEQ ID NO:10), Probe #32; ALOX15: 5′-[…] (SEQ ID NO:11), 5′-[…] (SEQ ID NO:12), Probe #76; ALOX15B: 5′-[…] (SEQ ID NO:13), 5′-actgggaggcgaagaagg (SEQ ID NO:14), Probe #51; AKR1C1: 5′-catgcctgtcctgggattt (SEQ ID NO:15), 5′-[…] (SEQ ID NO:16), Probe #49; AKR1C2: 5′-ctatgcgcctgcagaggt (SEQ ID NO:17), 5′-[…] (SEQ ID NO:18), Probe #31; AKR1C3: 5′-[…] (SEQ ID NO:19), 5′-[…] (SEQ ID NO:20), Probe #78; CYSLTR2: 5′-[…] (SEQ ID NO:21), 5′-[…] (SEQ ID NO:22), Probe #18; DPEP1: 5′-gacgtcctgaggctggtg (SEQ ID NO:23), 5′-[…] (SEQ ID NO:24), Probe #9 (SEQ ID NO:25), ELOVL2: 5′-[…] (SEQ ID NO:26), 5′-[…] (SEQ ID NO:27), Probe #53; ELOVL4: 5′-catttggcccatggattc (SEQ ID NO:28), 5′-[…] (SEQ ID NO:29), Probe #31; ELOVL5: 5′-cccttccatgcgtccata (SEQ ID NO:30), 5′-[…] (SEQ ID NO:31), Probe #31; EPHX2: 5′-ttctgctggacaccctgaa (SEQ ID NO:32), 5′-[…] (SEQ ID NO:33), Probe #45; GPX4: 5′-ttcccgtgtaaccagttcg (SEQ ID NO:34), 5′-[…] (SEQ ID NO:35), Probe #36; LTA4H: 5′-ctgctctcacggtccagtc (SEQ ID NO:36), 5′-[…] (SEQ ID NO:37), Probe #64; LTBR2: 5′-[…] (SEQ ID NO:38), 5′-[…] (SEQ ID NO:39), Probe #33; LTC4S: 5′-[…] (SEQ ID NO:40), 5′-[…] (SEQ ID NO:41), Probe #18; PTGDS: 5′-[…] (SEQ ID NO:42), 5′-[…] (SEQ ID NO:43), Probe #36; PTGES: 5′-agagatgcctgcccacag (SEQ ID NO:44), 5′-tggccaccacgtacatctt (SEQ ID NO:45), Probe #4; PTGES2: 5′-[…] (SEQ ID NO:46), 5′-[…] (SEQ ID NO:47), Probe #49; PTGES3 (SEQ ID NO:48), 5′-[…] (SEQ ID NO:49), 5′-[…] (SEQ ID NO:50), Probe #48; PTGIS: 5′-[…] (SEQ ID NO:51), 5′-[…] (SEQ ID NO:52), Probe #45; PTGR1: 5′-atgatggggcagcaagtg (SEQ ID NO:53), 5′-cccatcagaaatggagtgc (SEQ ID NO:54), Probe #64; PTGS1: 5′-[…] (SEQ ID NO:55), 5′-gtggtggtccatgttcctg (SEQ ID NO:56), Probe #81; PTGS2: 5′-gatccccagggctcaaac (SEQ ID NO:57), 5′-[…] (SEQ ID NO:58), Probe #61; TBXAS1: 5′-[…] (SEQ ID NO:59), 5′-tgcctcccgtgtgaatct (SEQ ID NO:60), Probe #73; AREG: 5′-[…] (SEQ ID NO:61), 5′-[…] […]

CCCCC/C=C/C=C1/C(=O)C=C[C@@H]1C/C=C\CCCC(=O)O [15d-PGJ2]
bleomycin-induced fibrosis [1]: attenuate

CS(=O)(=O)Nc1ccc([N+](=O)[O-])cc1OC1CCCCC1 [NS-398]
decline of ACTA2 induction at Day 20 relative to Day 2 ([2]; Day 20 CM): abrogated this decline

CC(c1cc2ccccc2s1)N(O)C(N)=O (centres unmarked) [zileuton]
collagen expression induced by CM from senescent cells ([2]; Day 2 CM, with or without TGF-beta, donor cells treated 24 h): prevented this effect
collagen expression induced by CM from senescent cells ([2]; Day 20 CM in the presence of TGF-beta): again prevented
smooth muscle actin expression (ACTA2) ([2]; regardless of time point): no effect
